Test results: publication PMC8443589, “Modelling human liver fibrosis in the context of non-alcoholic steatohepatitis using a microphysiological system” (Communications Biology, 2021)

How the values were obtained:
Type in all cases: cell-based, human
[1] = system: liver MPS NASH model (PHH, KC and HSC co-cultures); test: Cue study: albumin production (ELISA)
[2] = system: liver MPS NASH model (PHH, KC and HSC co-cultures); test: Cue study: secreted cytokines and chemokines (Luminex) with varying NPC number and added cues (Fig 5a, 5b)
Description: There is only limited understanding of the pathogenic drivers of NASH and their interaction, principally due to a lack of translational models that are amenable to detailed molecular analysis[2],[34]. Here, a systems biology ‘cue-signal-analysis’ paradigm[35],[36] was utilised to produce large factorial datasets to enable the identification of molecular pathways of importance. […] To create varying set ups of the NASH microtissues we created hepatocyte microtissues in the MPS with high numbers of NPC (60,000 KC and HSC—equivalent to 10% of microtissue population) and low numbers of NPCs (6000 KC and HSC—equivalent to 1% of microtissue), representing physiological and non-physiological cell ratios respectively. Next, we took these different microtissues and cultured them in media with or without FFA. Finally, we supplemented the media with lipopolysaccharide (LPS), TGFβ, fructose or cholesterol either as single ‘cues’, in pairs or all together (Fig. 4a). ‘Cues’ were selected for clinical association with NASH. LPS, is a pleiotropic inflammatory molecule, it is proposed to reach the liver via the hepatic portal vein after release from the gastrointestinal tract, contributing to disease progression[37],[38]. TGFβ has been extensively studied in relation to fibrosis due to its regulation of genes controlling collagen and matrix-modifying enzymes. Fructose is a key substrate for de-novo lipogenesis, a process that has been identified as a key event in lipid accumulation within NAFLD patients. Finally, cholesterol accumulation has also been linked to NASH disease aetiology.
Assessment of gene expression changes was supplemented by assessment of the secretome produced by NASH microtissues in the MPS after exposure to the various cues. Increased pro-inflammatory cytokine secretion is a defining characteristic in NASH patients, so we conducted a Luminex cytokine array covering 42 different biomarkers, cytokines and chemokines secreted into the culture media of the different microtissues at multiple time points. […]

[3] = system: liver MPS NASH model (PHH, KC and HSC co-cultures); test: Cue study: pro-fibrotic biomarkers TIMP-1, pro-collagen 1, fibronectin (Fig 5c); conditions: fat medium + cue
Description: Assessment of gene expression changes was supplemented by assessment of the secretome produced by NASH microtissues in the MPS after exposure to the various cues. Increased pro-inflammatory cytokine secretion is a defining characteristic in NASH patients, so we conducted a Luminex cytokine array covering 42 different biomarkers, cytokines and chemokines secreted into the culture media of the different microtissues at multiple time points. We consistently detected 27 out of the 42 biomarkers and observed that there was differential expression of cytokines and chemokines driven by the different cues applied to the micro-tissue (Fig. 5a, b). The LPS cue and the presence of higher NPC numbers were responsible for driving the largest increase in cytokine and chemokine release, with the largest increases in cytokines measured on day 14 (Fig. 5b). […] Similarly, to the cytokine production, these changes were not further enhanced by combining cues, as all the cue combinations containing TGFβ had the highest expression (Supp. Fig. 17c).
Fig. 5 Systems biology interrogation of liver MPS NASH model to determine physiologically relevant cues that promote soluble biomarker changes to mimic advanced NASH disease state. PHH, KC and HSC co-cultures were cultured in the MPS platform under a variety of conditions for 14 days to test number of NPCs, presence of fat, fructose, cholesterol, LPS and TGFβ for effects on the soluble biomarker profile of the liver MPS NASH model. Expression of biomarkers, cytokines and chemokines were compared, all concentrations were normalised by Z-transformation to allow comparison and shown relative to mean for each marker (white = not detected). a Cytokine expression compared with varying levels of NPCs; b for the high NPC group in the presence of additional cues; c Expression of pro-fibrotic biomarkers with varying NPC content and with additional varying cues in high NPC condition (additional data in Supp. Fig. 17). d Graphical summary of the changes that occur in the NASH model in the presence of Fat and Fat + TGFβ. All data were generated from a minimum of three independent replicate samples per condition.
The MPS LC12 plates consists of 12 individual bioreactors that contain pneumatically driven micro-pumps to recirculate cell culture medium through a collagen-coated scaffold. Cells were cultured using the protocol previously described[20],[21], but briefly, PHH were seeded at a density of 6 × 10^5 viable cells per well on the LC12 plates with each NPC population (KC and/or HSC) at a density of 6 × 10^4 viable cells per well. Each well contained a final volume of 1.6 mL of medium per well and maintained under a flow rate of 1.0 µL/s. Cells were seeded in Williams E medium containing primary hepatocyte thawing and plating supplements (Life Technologies, USA) and cultured initially under downward flow for 8 h before the flow was automatically reversed to upward flow for the next 16 h of culture. Microtissues were then cultured in either HEP-Lean or HEP-Fat medium, both media’s are proprietary to CN Bio Innovations Ltd. The HEP-Fat medium is a derivative of the HEP-LEAN medium and contains a mixture of saturated and unsaturated FFAs, as well as physiologically relevant quantities of insulin and sugars. Complete media changes were performed on all wells every 48–72 h. For certain experiments, the media was supplemented with additional additives from day 4 onwards: 1 ng/ml LPS (lipopolysaccharides from Escherichia coli O111:B4) (Sigma Aldrich, UK), 1 ng/ml recombinant TGF beta 1 protein (Abcam, UK); 500 µM Fructose (Sigma Aldrich, UK), 50 µg/ml Cholesterol (Sigma Aldrich, UK). […]

CC(C)CCC[C@@H](C)[C@H]1CC[C@H]2[C@@H]3CC=C4C[C@@H](O)CC[C@]4(C)[C@H]3CC[C@]12C [Cholesterol]
Albumin production [1]: to a lesser extent
EGF relative expression (z-transformation) ([2]; Day 6, Fat media + cue): -2.017
Eotaxin relative expression (z-transformation) ([2]; Day 6, Fat media + cue): -0.7967
FGF-2 relative expression (z-transformation) ([2]; Day 6, Fat media + cue): -0.2249
Fit-3L relative expression (z-transformation) ([2]; Day 6, Fat media + cue): -1.968
Fractalkine relative expression (z-transformation) ([2]; Day 6, Fat media + cue): -1.501
G-CSF relative expression (z-transformation) ([2]; Day 6, Fat media + cue): -0.1828
GM-CSF relative expression (z-transformation) ([2]; Day 6, Fat media + cue): -0.6958
GRO relative expression (z-transformation) ([2]; Day 6, Fat media + cue): -0.8479
IFN-a2 relative expression (z-transformation) ([2]; Day 6, Fat media + cue): -1.086
IL-1RA relative expression (z-transformation) ([2]; Day 6, Fat media + cue): -1.579
IL-4 relative expression (z-transformation) ([2]; Day 6, Fat media + cue): -1.537
IL-6 relative expression (z-transformation) ([2]; Day 6, Fat media + cue): -0.8492
IL-7 relative expression (z-transformation) ([2]; Day 6, Fat media + cue): -1.138
IL-8 relative expression (z-transformation) ([2]; Day 6, Fat media + cue): -1.037
IL-15 relative expression (z-transformation) ([2]; Day 6, Fat media + cue): -1.447
IP-10 relative expression (z-transformation) ([2]; Day 6, Fat media + cue): -1.086
MCP-1 relative expression (z-transformation) ([2]; Day 6, Fat media + cue): -1.585
MCP-3 relative expression (z-transformation) ([2]; Day 6, Fat media + cue): -1.263
MDC relative expression (z-transformation) ([2]; Day 6, Fat media + cue): -0.4545
MIP-1a relative expression (z-transformation) ([2]; Day 6, Fat media + cue): -0.7293
MIP-1b relative expression (z-transformation) ([2]; Day 6, Fat media + cue): -0.9104
TNFa relative expression (z-transformation) ([2]; Day 6, Fat media + cue): -0.774
VEGF relative expression (z-transformation) ([2]; Day 6, Fat media + cue): -0.01821
EGF relative expression (z-transformation) ([2]; Day 11, Fat media + cue): 1.504
Eotaxin relative expression (z-transformation) ([2]; Day 11, Fat media + cue): -0.8044
FGF-2 relative expression (z-transformation) ([2]; Day 11, Fat media + cue): 0.794
Fractalkine relative expression (z-transformation) ([2]; Day 11, Fat media + cue): -1.145
G-CSF relative expression (z-transformation) ([2]; Day 11, Fat media + cue): -0.8882
GRO relative expression (z-transformation) ([2]; Day 11, Fat media + cue): -1.084
IFN-a2 relative expression (z-transformation) ([2]; Day 11, Fat media + cue): -0.9638
IL-1RA relative expression (z-transformation) ([2]; Day 11, Fat media + cue): -1.623
IL-4 relative expression (z-transformation) ([2]; Day 11, Fat media + cue): -1.08
IL-6 relative expression (z-transformation) ([2]; Day 11, Fat media + cue): -0.9589
IL-7 relative expression (z-transformation) ([2]; Day 11, Fat media + cue): -0.957
IL-8 relative expression (z-transformation) ([2]; Day 11, Fat media + cue): -1.364
IL-15 relative expression (z-transformation) ([2]; Day 11, Fat media + cue): -1.997
IP-10 relative expression (z-transformation) ([2]; Day 11, Fat media + cue): -1.199
MCP-1 relative expression (z-transformation) ([2]; Day 11, Fat media + cue): -2.479
MCP-3 relative expression (z-transformation) ([2]; Day 11, Fat media + cue): -1.098
MDC relative expression (z-transformation) ([2]; Day 11, Fat media + cue): -1.98
MIP-1a relative expression (z-transformation) ([2]; Day 11, Fat media + cue): -0.8147
MIP-1b relative expression (z-transformation) ([2]; Day 11, Fat media + cue): -0.9274
VEGF relative expression (z-transformation) ([2]; Day 11, Fat media + cue): -1.0705
Eotaxin relative expression (z-transformation) ([2]; Day 14, Fat media + cue): -0.1613
FGF-2 relative expression (z-transformation) ([2]; Day 14, Fat media + cue): -0.6319
Fractalkine relative expression (z-transformation) ([2]; Day 14, Fat media + cue): -0.3551
G-CSF relative expression (z-transformation) ([2]; Day 14, Fat media + cue): -1.591
GM-CSF relative expression (z-transformation) ([2]; Day 14, Fat media + cue): -1.001
GRO relative expression (z-transformation) ([2]; Day 14, Fat media + cue): -0.8633
IFN-a2 relative expression (z-transformation) ([2]; Day 14, Fat media + cue): -1.669
IL-1RA relative expression (z-transformation) ([2]; Day 14, Fat media + cue): -1.544
IL-4 relative expression (z-transformation) ([2]; Day 14, Fat media + cue): -1.577
IL-6 relative expression (z-transformation) ([2]; Day 14, Fat media + cue): -0.7817
IL-7 relative expression (z-transformation) ([2]; Day 14, Fat media + cue): -1.113
IL-8 relative expression (z-transformation) ([2]; Day 14, Fat media + cue): -1.061
IL-15 relative expression (z-transformation) ([2]; Day 14, Fat media + cue): -1.074
IP-10 relative expression (z-transformation) ([2]; Day 14, Fat media + cue): -0.9907
MCP-1 relative expression (z-transformation) ([2]; Day 14, Fat media + cue): -1.142
MCP-3 relative expression (z-transformation) ([2]; Day 14, Fat media + cue): -1.036
MDC relative expression (z-transformation) ([2]; Day 14, Fat media + cue): -1.936
MIP-1a relative expression (z-transformation) ([2]; Day 14, Fat media + cue): -0.7839
MIP-1b relative expression (z-transformation) ([2]; Day 14, Fat media + cue): -0.9403
TNFa relative expression (z-transformation) ([2]; Day 14, Fat media + cue): -0.8637
VEGF relative expression (z-transformation) ([2]; Day 14, Fat media + cue): 3.004
TNFα ([2]; day 14): greatest increase
Fibronectin (Fold change in cytokine production compared to control) ([3]; Day 6, high NPC): 0.5839
Pro-collagen 1 (Fold change in cytokine production compared to control) ([3]; Day 6, high NPC): -0.1232
TIMP-1 (Fold change in cytokine production compared to control) ([3]; Day 6, high NPC): -0.5668
Fibronectin (Fold change in cytokine production compared to control) ([3]; Day 11, high NPC): 0.3927
Pro-collagen 1 (Fold change in cytokine production compared to control) ([3]; Day 11, high NPC): 0.4365
TIMP-1 (Fold change in cytokine production compared to control) ([3]; Day 11, high NPC): -0.1305
Fibronectin (Fold change in cytokine production compared to control) ([3]; Day 14, high NPC): -0.4332
Pro-collagen 1 (Fold change in cytokine production compared to control) ([3]; Day 14, high NPC): 0.3527
TIMP-1 (Fold change in cytokine production compared to control) ([3]; Day 14, high NPC): -0.3247
